The text below walks through data of patent US5280125A, “Chemical process for the preparation of 3-alkylated indole” (Imperial Chemical Industries PLC, priority 1990, dated 1994).

One series relates to leukotriene LTD4. As to the kind of experiment: guinea-pig aerosol test (LTD4 aerosol challenge, onset of dyspnea). The class given is in vivo. The procedure:
According to this procedure, guinea-pigs are pre-dosed with test compound as a solution in poly(ethylene glycol) (generally 1 hour) before an aerosol challenge of leukotriene LTD4 (starting with 2 ml of a 30 microgram/ml solution) and the effect of the test compound on the average time of leukotriene initiated change in breathing pattern (such as onset of dyspnea) recorded and compared with that in undosed, control guinea-pigs. Percent protection engendered by a test compound was calculated from the time delay to the onset of dyspnea compared to that for control animals.

The subject of a further series is LTC4, LTD4 and/or LTE4. Kind of series: in vitro leukotriene antagonist tests (guinea-pig tracheal strip preparation or receptor-ligand binding assay). Particulars: in one of the above in vitro tests.

As for `COc1cc(C(=O)NS(=O)(=O)c2ccccc2C)ccc1Cc1cn(C)c2ccc(C(=O)NC[C@H](C)CC(F)(F)F)cc12` [compound of formula I substantially in the form of the (R)-enantiomer, (R)-4-[5-(N-[4,4,4-trifluoro-2-methylbutyl]carbamoyl)-1-methylindol-3-yl-methyl]-3-methoxy-N-o-tolylsulphonylbenzamide], the ED50 with leukotriene LTD4 (Cavia porcellus, 1 h, oral administration, protection against LTD4 aerosol-induced dyspnea) was determined as 1.1 µmol/kg. In addition, in the series on leukotriene LTD4 (oral, at several multiples of the minimum effective dose), the untoward side-effects result is recorded as “without any indication of untoward side-effects”.

Regarding `COc1cc(C(=O)NS(=O)(=O)c2ccccc2C)ccc1Cc1cn(C)c2ccc(C(=O)NCC(C)CC(F)(F)F)cc12` (stereo not drawn) [compound of formula I, 4-[5-(N-[4,4,4-trifluoro-2-methylbutyl]carbamoyl)-1-methylindol-3-ylmethyl]-3-methoxy-N-o-tolylsulphonylbenzamide], in the series on LTC4, LTD4 and/or LTE4, the “concentration showing statistically significant activity as LTC4, LTD4 and/or LTE4 antagonist” value was ≤ 10^-8 M.

By ED50 is commonly meant the dose at which the effect has come halfway, by size or by number of responders. Higher therefore signals a need for a large dose.
